# Entries after “also recorded” stand apart in the source; their conditions may differ. Where a name gives a salt, the structure may show the parent alone. Read-outs that look alike come from different tables or passages of the source. Marks after values point to notes of the source that are not given here.
# Tests used:
# CB1 receptor = CB1 receptor (Rattus norvegicus, UniProt P20272); assay: biochemical; assay type: binding; conditions: for Ki: 1 nM [3H] CP 55,940, rat whole brain P2 membranes, 30° C. for 1 hr
# Chain of CB1 receptor (P20272 whole entry): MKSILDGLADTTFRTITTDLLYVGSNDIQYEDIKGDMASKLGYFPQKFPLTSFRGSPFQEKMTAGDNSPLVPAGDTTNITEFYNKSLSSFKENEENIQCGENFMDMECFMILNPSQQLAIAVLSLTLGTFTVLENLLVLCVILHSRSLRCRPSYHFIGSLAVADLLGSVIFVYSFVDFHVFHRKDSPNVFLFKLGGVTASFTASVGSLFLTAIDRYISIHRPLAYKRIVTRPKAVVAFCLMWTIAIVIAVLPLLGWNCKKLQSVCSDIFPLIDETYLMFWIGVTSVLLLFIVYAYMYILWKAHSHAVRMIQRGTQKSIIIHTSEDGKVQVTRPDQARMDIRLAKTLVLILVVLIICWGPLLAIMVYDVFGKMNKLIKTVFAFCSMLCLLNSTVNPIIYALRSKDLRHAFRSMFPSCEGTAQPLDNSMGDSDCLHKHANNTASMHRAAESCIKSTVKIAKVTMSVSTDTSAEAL
# Experimental: (§1) Male ICR mice (25-32 g), purchased from Harlan (Dublin, Va.), were housed in groups of five. All animals were kept in a temperature-controlled (20-22° C.) environment with a 12-hour light-dark cycle (lights on at 7 a.m.). Separate mice were used for testing each drug dose in the in vivo behavioral procedures. The mice were maintained on a […] light: dark cycle, and received food and water ad libitum. Brain tissue for binding studies was obtained from male Sprague-Dawley rats (150-200 g) purchased from Harlan Laboratories (Dublin, Va.).
# All assays, as described briefly below, were performed in triplicate, and the results represent the combined data from three to six individual experiments. Following decapitation and rapid removal of the brain, whole brain was homogenized and centrifuged. The resulting pellet was termed P1. The supernatant was saved and combined with the two subsequent supernatants obtained from washing of the P1 pellet. The combined supernatant fractions were centrifuged, resulting in the P2 pellet. After further incubation and centrifuging, this pellet was resuspended in assay buffer to a protein concentration of approximately 2 mg/ml. The membrane preparation was quickly frozen in a bath solution of dry ice and 2-methylbutane (Sigma Chemical Co., St. Louis, Mo.), then stored at −80° C. for no more than 2 weeks. […] Binding was initiated by the addition of 150 μg of P2 membrane to test tubes containing 1 nM of [3H] […] Following incubation at 30° C. for 1 hr, binding was terminated by addition of ice-cold buffer and vacuum filtration through pretreated filters in a 12-well sampling manifold (Millipore, Bedford, Mass.). After washing, filters were placed into plastic scintillation vials (Packard, Downer Grove, Ill.) and shaken. The quantity of radioactivity present was determined by liquid scintillation spectrometry.
# mice [1] = assay: Spontaneous (locomotor) activity in mice, compound alone (agonism test); assay type: in vivo; conditions: for inhibition in vivo at 30 mg/kg: read-out: Max % inhibit of spontaneous locomotor activity, Compound Alone; for change in vivo at 3 mg/kg: at 3 mg/kg i.v.; for stimulation of locomotor activity: compound alone, dose not given (see Table 5)
# Experimental: as §1
# (§2) Measurement of spontaneous activity in mice occurred in standard activity chambers interfaced with a Digiscan Animal Activity Monitor (Omnitech Electronics, Inc., Columbus, Ohio). A standard tail-flick apparatus (described by Dewey et al., 1970) and a digital thermometer (Fisher Scientific, Pittsburgh, Pa.) were used to measure antinociception and rectal temperature, respectively.
# (§3) All drugs were administered to the mice intravenously (i.v.) in the tail vein at a volume of 0.1 ml/10 g.
# (§4) Maximum latency of 10 sec was used.
# mice [2] = assay: Tail-flick antinociception in mice, compound alone (agonism test); assay type: in vivo; conditions: Mus musculus, iv
# Experimental: as §1, §2, §3, §4
# mice [3] = assay: Rectal temperature (hypothermia) in mice, compound alone (agonism test); assay type: in vivo; conditions: for ED50: Mus musculus, iv
# Experimental: as §1, §2, §3, §4
# mice [4] = assay: Spontaneous activity in mice, compound in combination with 3 mg/kg Δ^9-THC (antagonism test); assay type: in vivo; conditions: for SA: maximum % antagonism of 3 mg/kg Δ^9-THC: analog 10 min before Δ^9-THC
# Experimental: as §1, §2, §3, §4
# mice [5] = assay: Tail-flick antinociception in mice, compound in combination with 3 mg/kg Δ^9-THC (antagonism test); assay type: in vivo
# Experimental: as §1, §2, §3, §4
# mice [6] = assay: Rectal temperature in mice, compound in combination with 3 mg/kg Δ^9-THC (antagonism test); assay type: in vivo
# Experimental: as §1, §2, §3, §4
# mice [7] = assay: Agonism tests in mice, stated across the triad (spontaneous activity, tail flick, rectal temperature); conditions: compound alone, i.v. doses up to 30 mg/kg
# mice [8] = assay: Antagonism tests with 3 mg/kg Δ^9-THC, stated across the measures (locomotor, antinociception, hypothermia)
# mice [9] = conditions: cited from earlier work
# mice [10] = conditions: cited from earlier work; remark: listed apart in the source
# mice [11] = conditions: cited from earlier work; remark: listed apart in the source
# [12] = Mus musculus, iv, at 30 mg/kg i.v.
# [13] = Mus musculus, iv, mice, i.v., 95% confidence limits in parentheses, * = estimated ED50, dose-effect curve not linear, read-out: SA (suppression of spontaneous activity) ED50
# [14] = 20 min, i.v., 20 min post-injection, 95% confidence limits in parentheses, * = estimated ED50, dose-effect curve not linear, read-out: TF (tail flick, % MPE) ED50
# [15] = 0.5 h, i.v., 30 min post-injection, 95% confidence limits in parentheses, read-out: RT (rectal temperature) ED50
# [16] = at the dose(s) [mg/kg] given in parentheses in the cell
# [17] = Mus musculus, iv, mice, i.v., read-out: SA: > dose, 50% activity not achieved at this highest dose tested
# [18] = read-out: TF: > dose, 50% activity not achieved at this highest dose tested
# [19] = read-out: RT: > dose, 50% activity not achieved at this highest dose tested
# [20] = Mus musculus, iv, read-out: Max stim of spontaneous locomotor activity, Compound Alone
structure (smiles),measurement,setting,value
"CCCCCNC(=O)c1nn(-c2ccc(Cl)cc2Cl)c(-c2ccc(Cl)cc2)c1C [Compound O-1269, N-(n-pentyl)-5-(4-chlorophenyl)-1-(2,4-dichlorophenyl)-4-methyl-1H-pyrazole-3-carboxamide]",Ki,CB1 receptor; Ki (nM),32 ± 5 nM
same,change in vivo at 1 mg/kg,"mice [1]; Mus musculus, iv, at 1 mg/kg i.v., read-out: Max stim of spontaneous locomotor activity, Compound Alone",7%
same,inhibition in vivo at 30 mg/kg,mice [1]; [12],87%
same,ED50,mice [1]; [13],11 µmol/kg
same,ED50,mice [2]; [14],21 µmol/kg
same,ED50,mice [3]; [15],11 µmol/kg
same,SA: maximum % antagonism of 3 mg/kg Δ^9-THC,mice [4]; at 3 mg/kg i.v.,38% (3)
same,"Max % inhibit of spontaneous locomotor activity, Compound with 3 mg/kg Δ^9-THC",mice [4]; at 10 mg/kg i.v.,91% (10)
same,"Max stim of spontaneous locomotor activity, Compound with 3 mg/kg Δ^9-THC (in words)",mice [4]; [16],"None (1, 3 & 10)"
same,% MPE: maximum % antagonism of 3 mg/kg Δ^9-THC,mice [5]; at 3 mg/kg i.v.,66% (3)
same,RT: maximum % antagonism of 3 mg/kg Δ^9-THC,mice [6]; at 1 mg/kg i.v.,43% (1)
same,in vivo cannabinoid agonist activity (in words),mice [7],agonist activity
CCC(C)c1ccc(-n2nc(C(=O)NN3CCCCC3)c(C)c2-c2ccc(Cl)cc2)cc1 (stereo not drawn) [Compound O-1253],Ki,CB1 receptor; Ki (nM),47 ± 2 nM
same,"CB1 binding affinity, fold less than SR 141716A",CB1 receptor; compared to SR 141716A,8 fold
same,change in vivo at 30 mg/kg,"mice [1]; Mus musculus, iv, at 30 mg/kg i.v., read-out: Max stim of spontaneous locomotor activity, Compound Alone",73%
same,ED50,mice [1]; [17],> 30 mg/kg
same,"Max % inhibit of spontaneous locomotor activity, Compound Alone (in words: stimulation instead of inhibition)",mice [1]; doses in mg/kg,"stim at 1, 3, 10 & 30"
same,ED50,mice [2]; [18],> 30 mg/kg
same,ED50,mice [3]; [19],> 30 mg/kg
same,"Max % inhibit of spontaneous locomotor activity, Compound with 3 mg/kg Δ^9-THC",mice [4]; at 0.1 mg/kg i.v.,89% (0.1)
same,SA: maximum % antagonism of 3 mg/kg Δ^9-THC,mice [4]; at 1 mg/kg i.v.,97% (1)
same,"Max stim of spontaneous locomotor activity, Compound with 3 mg/kg Δ^9-THC",mice [4]; at 10 mg/kg i.v.,50% (10)
same,antagonism of the antinociceptive and hypothermic effects of Δ^9-THC (in words),mice [8]; 3 mg/kg Δ^9-THC i.v.,"full, dose-dependent antagonism"
"Cc1c(C(=O)NN2CCCCC2)nn(-c2ccc(Cl)cc2Cl)c1-c1ccc(Cl)cc1 [SR141716A, N-(piperidin-1-yl)-5-(4-chlorophenyl)-1-(2,4-dichlorophenyl)-4-methyl-1H-pyrazole-3-carboxamide hydrochloride, reference compound]",SA: maximum % antagonism of 3 mg/kg Δ^9-THC,mice [4]; at 3 mg/kg i.v.,100% (3)
same,% MPE: maximum % antagonism of 3 mg/kg Δ^9-THC,mice [5]; at 0.1 mg/kg i.v.,96% (0.1)
same,"SA: > dose, 50% activity not achieved at this highest dose tested","mice [9]; from Compton et al., 1996",>30^c mg/kg
same,"TF: > dose, 50% activity not achieved at this highest dose tested","mice [10]; from Compton et al., 1996",>30^c mg/kg
same,"RT: > dose, 50% activity not achieved at this highest dose tested","mice [11]; from Compton et al., 1996",>30^c mg/kg
same,"antagonism of locomotor suppressant, antinociceptive and hypothermic effects of Δ^9-THC (in words)",mice [8]; 3 mg/kg Δ^9-THC i.v.,fully antagonized
CCCCCC(=O)c1nn(-c2ccc(Cl)cc2Cl)c(-c2ccc(Cl)cc2)c1C [Compound O-1271],Ki,CB1 receptor; Ki (nM),82 ± 10 nM
same,change in vivo at 3 mg/kg,mice [1]; [20],54%
same,inhibition in vivo at 30 mg/kg,mice [1]; [12],7%
same,ED50,mice [1]; [17],> 30 mg/kg
same,stimulation of locomotor activity,mice [1],54%
same,ED50,mice [2]; [18],> 30 mg/kg
same,ED50,mice [3]; [19],> 30 mg/kg
same,"Max % inhibit of spontaneous locomotor activity, Compound with 3 mg/kg Δ^9-THC",mice [4]; at 3 mg/kg i.v.,58% (3)
same,SA: maximum % antagonism of 3 mg/kg Δ^9-THC,mice [4]; at 10 mg/kg i.v.,77% (10)
same,"Max stim of spontaneous locomotor activity, Compound with 3 mg/kg Δ^9-THC (in words)",mice [4]; [16],None (3 & 10)
same,% MPE: maximum % antagonism of 3 mg/kg Δ^9-THC,mice [5]; at 10 mg/kg i.v.,65% (10)
same,RT: maximum % antagonism of 3 mg/kg Δ^9-THC,mice [6]; at 3 mg/kg i.v.,36% (3)
same,in vivo cannabinoid agonist activity (in words),mice [7],eliminated in vivo cannabimimetic activity; also recorded: did not have agonist properties
same,average % antagonism across the three measures,mice [8]; in combination with 3 mg/kg Δ^9-THC i.v.,59%
"CCCCCc1cc(O)c2c(c1)OC(C)(C)[C@@H]1CCC(C)=C[C@@H]21 [Δ^9-THC, Δ^9-tetrahydrocannabinol]",SA (suppression of spontaneous activity) ED50,"mice [9]; from Wiley et al., 1998",0.92 µmol/kg
same,"TF (tail flick, % MPE) ED50","mice [10]; from Wiley et al., 1998",2.7 µmol/kg
same,RT (rectal temperature) ED50,"mice [11]; from Wiley et al., 1998",2.5 µmol/kg
"CCCCCCCNC(=O)c1nn(-c2ccc(Cl)cc2Cl)c(-c2ccc(Cl)cc2)c1C [Compound O-1270, N-(n-heptyl)-5-(4-chlorophenyl)-1-(2,4-dichlorophenyl)-4-methyl-1H-pyrazole-3-carboxamide]",Ki,CB1 receptor; Ki (nM),48 ± 12 nM
same,change in vivo at 3 mg/kg,mice [1]; [20],29%
same,inhibition in vivo at 30 mg/kg,mice [1]; [12],80%
same,ED50,mice [1]; [13],27 µmol/kg
same,stimulation of locomotor activity,mice [1],29%
same,ED50,mice [2]; [14],20 µmol/kg
same,ED50,mice [3]; [15],12 µmol/kg
same,"Max % inhibit of spontaneous locomotor activity, Compound with 3 mg/kg Δ^9-THC",mice [4]; at 10 mg/kg i.v.,87% (10)
same,"Max stim of spontaneous locomotor activity, Compound with 3 mg/kg Δ^9-THC (in words)",mice [4]; [16],None (10)
same,SA: maximum % antagonism of 3 mg/kg Δ^9-THC (in words),mice [4]; [16],None (10)
same,% MPE: maximum % antagonism of 3 mg/kg Δ^9-THC,mice [5]; at 3 mg/kg i.v.,37% (3)
same,RT: maximum % antagonism of 3 mg/kg Δ^9-THC,mice [6]; at 1 mg/kg i.v.,26% (1)
same,in vivo cannabinoid agonist activity (in words),mice [7],agonist activity
CCCCCCCC(=O)c1nn(-c2ccc(Cl)cc2Cl)c(-c2ccc(Cl)cc2)c1C [Compound O-1272],Ki,CB1 receptor; read-out: Ki,221 ± 36 nM
same,change in vivo at 3 mg/kg,mice [1]; [20],17%
same,inhibition in vivo at 30 mg/kg,mice [1]; [12],54%
same,SA: maximal effect produced by the analog,"mice [1]; mice, i.v., at 30 mg/kg",54% (30)^#
same,ED50,mice [2]; [18],> 30 mg/kg
same,RT: maximal effect produced by the analog (change in rectal temperature),"mice [3]; i.v., at 30 mg/kg",−3 (30)^# ° C.
same,in vivo cannabinoid agonist activity (in words),mice [7],eliminated in vivo cannabimimetic activity

# From patent US6509367B1 (priority 2001, dated 2003)
